# Results from patent EP2511272B1, “Synthetic analogues of abscisic acid with anti-inflammatory and insulin release stimulation effects on human cells” (Universita' degli Studi di Genova, priority 2011, dated 2012).
# Key:
# [1] = biological target: T1, ABA receptor (Homo sapiens, UniProt Q9NS86); conditions: value used in Cheng-Prusoff equation (Yamazaki e al., 2003); cited from earlier work
# T1 construct: Human granulocytes (7 x 10^6 per point), after ON incubation in complete DMEM/F12, were incubated in triplicate; endogenous in cells; host or cells: human granulocytes (intact cells)
# T1 sequence (Q9NS86 1-450): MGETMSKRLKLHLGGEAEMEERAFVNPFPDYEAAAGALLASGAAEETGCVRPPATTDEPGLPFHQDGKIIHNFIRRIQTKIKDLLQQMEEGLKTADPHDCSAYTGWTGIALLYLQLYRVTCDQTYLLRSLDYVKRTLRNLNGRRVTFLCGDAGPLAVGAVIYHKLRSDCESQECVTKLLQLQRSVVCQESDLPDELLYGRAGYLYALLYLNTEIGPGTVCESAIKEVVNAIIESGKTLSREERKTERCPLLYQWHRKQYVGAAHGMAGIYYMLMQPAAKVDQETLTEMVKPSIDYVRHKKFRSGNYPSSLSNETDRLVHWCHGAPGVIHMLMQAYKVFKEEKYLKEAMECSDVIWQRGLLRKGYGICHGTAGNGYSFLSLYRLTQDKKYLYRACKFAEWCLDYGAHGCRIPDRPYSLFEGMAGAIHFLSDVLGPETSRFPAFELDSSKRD
# [2] = Stability after extraction from human plasma (HPLC-MS); assay type: in vitro ADME; conditions: for Stability after extraction (amount found): Plasma, 10 µM
# Method: Compound prepared according to example 1 was tested for stability at 10 µM concentration in deionized water, phosphate buffer (HBSS with calcium and magnesium) and human plasma for 0 and after 24 hrs at 37 °C, by carrying out the extraction as described in Materials and Methods, and subsequent HPLC-MS analysis for the analyte of interest.
# For stability tests, to 2 ml of deionized water, HBSS or human plasma, the compound of example 1 (10 µM) and 5,000 cpm of [^3H]ABA were added, for the purpose of evaluating the recovery after the extraction procedure. The so prepared samples were exctracted at time 0 and after 24 hrs.
# For the extraction, 8 ml was added of distilled methanol (methanol/water : 80/20 vol/vol) and the mixture was kept at -20 °C overnight.
# The following day the samples were centrifuged at 800xg for 10 minutes and the supernatant was concentrated to dryness by Rotavapor. The reconstituted aqueous solution was acidified at pH 2.6 with 10 % trifluoroacetric acid (TFA) and was extracted three times with diethyl ether (diethyl ether/water: 1:1 vol/vol).
# The ethereal phase was finally removed by Rotavapor and the extraxt was resuspended in 1 ml of HBSS; 8 µl of such solution was analysed by HPLC-MS, and 100 µl was used for radioactivity counting by a Packard β-counter in order to compute extraction recovery.
# The HPLC-MS system used consists of an Agilent 1100 capillary chromatograph equipped with a diode array detector (DAD) and coupled with an Agilent 1100 series LC/MSD Trap mass spectometer with orthogonal electrospray source and a ionic-trap analyser.
# The detection wavelength was 254 nm and the MS spectrum was recorded in negative ions mode in an m/z range of 50-300.
# The amount of compound of example 1 in the extracts and supernatants was computed as the area of the peak under the extracted ion current m/z 279.3, normalized for the ionization efficiency of internal standard (hexadeuterated ABA) used for HPLC-MS analysis. Furthermore, the concentration was computed using the recovery rates obtained from the evaluation of counts per minute (cpm) of extracted [^3H]ABA.
Compound,Kd [1],"Stability after extraction (amount found) ([2]; 0 hr, equals extraction yield, listed as compound of example 1)","Stability after extraction (amount found) ([2]; 0 hr, equals extraction yield, listed as compound prepared according to example 1)",Stability after extraction (amount found) ([2]; 24 hrs at 37 °C),"degradation ([2]; in plasma, 0 vs 24 hrs)"
"CC1=CC(=O)CC(C)(C)C1(O)/C=C/C(C)=C\C(=O)O (racemic) [ABA, (2Z,4E)-5-(1-hydroxy-2,6,6-trimethyl-4-oxo-2-cyclohexen-1-yl)-3-methyl-2,4-pentadienoic acid, reference compound]",0.011 µM,,,,
"CC(=C/C(=O)O)/C=C/C1(O)C(C)(C)CC(=O)C2OC21C (stereo not drawn) [Example 1, 2'α,3'α-dihydro-2'α,3'α-epoxyabscisic acid]",,56%,56%,49%,7%
